Assay type in all cases: biochemical
One assay deals with LRRK2 (Homo sapiens (Human), UniProt Q5S007). The assay is described as follows: LRRK2 Kinase Assay. The settings on record: 10 μM ATP. Here is the method: (§1) Briefly, specific kinase/substrate pairs along with required cofactors were prepared in reaction buffer; 20 mM Hepes (pH 7.5), 10 mM MgCl2, 1 mM EGTA, 0.02% Brij35, 0.02 mg/ml BSA, 0.1 mM Na3VO4, 2 mM DTT, 1% DMSO. Compounds were delivered into the reaction, followed ˜20 min later by addition of a mixture of ATP (Sigma) and 33P ATP (PerkinElmer) to a final concentration of 10 μM. […] IC50 values and curve fits were obtained using Prism (GraphPad Software). Kinome tree representations were prepared using Kinome Mapper (http://www.reactionbiology.com/apps/kinome/mapper/Launch Kinome.htm).
Sequence of LRRK2 (Q5S007 970-2527): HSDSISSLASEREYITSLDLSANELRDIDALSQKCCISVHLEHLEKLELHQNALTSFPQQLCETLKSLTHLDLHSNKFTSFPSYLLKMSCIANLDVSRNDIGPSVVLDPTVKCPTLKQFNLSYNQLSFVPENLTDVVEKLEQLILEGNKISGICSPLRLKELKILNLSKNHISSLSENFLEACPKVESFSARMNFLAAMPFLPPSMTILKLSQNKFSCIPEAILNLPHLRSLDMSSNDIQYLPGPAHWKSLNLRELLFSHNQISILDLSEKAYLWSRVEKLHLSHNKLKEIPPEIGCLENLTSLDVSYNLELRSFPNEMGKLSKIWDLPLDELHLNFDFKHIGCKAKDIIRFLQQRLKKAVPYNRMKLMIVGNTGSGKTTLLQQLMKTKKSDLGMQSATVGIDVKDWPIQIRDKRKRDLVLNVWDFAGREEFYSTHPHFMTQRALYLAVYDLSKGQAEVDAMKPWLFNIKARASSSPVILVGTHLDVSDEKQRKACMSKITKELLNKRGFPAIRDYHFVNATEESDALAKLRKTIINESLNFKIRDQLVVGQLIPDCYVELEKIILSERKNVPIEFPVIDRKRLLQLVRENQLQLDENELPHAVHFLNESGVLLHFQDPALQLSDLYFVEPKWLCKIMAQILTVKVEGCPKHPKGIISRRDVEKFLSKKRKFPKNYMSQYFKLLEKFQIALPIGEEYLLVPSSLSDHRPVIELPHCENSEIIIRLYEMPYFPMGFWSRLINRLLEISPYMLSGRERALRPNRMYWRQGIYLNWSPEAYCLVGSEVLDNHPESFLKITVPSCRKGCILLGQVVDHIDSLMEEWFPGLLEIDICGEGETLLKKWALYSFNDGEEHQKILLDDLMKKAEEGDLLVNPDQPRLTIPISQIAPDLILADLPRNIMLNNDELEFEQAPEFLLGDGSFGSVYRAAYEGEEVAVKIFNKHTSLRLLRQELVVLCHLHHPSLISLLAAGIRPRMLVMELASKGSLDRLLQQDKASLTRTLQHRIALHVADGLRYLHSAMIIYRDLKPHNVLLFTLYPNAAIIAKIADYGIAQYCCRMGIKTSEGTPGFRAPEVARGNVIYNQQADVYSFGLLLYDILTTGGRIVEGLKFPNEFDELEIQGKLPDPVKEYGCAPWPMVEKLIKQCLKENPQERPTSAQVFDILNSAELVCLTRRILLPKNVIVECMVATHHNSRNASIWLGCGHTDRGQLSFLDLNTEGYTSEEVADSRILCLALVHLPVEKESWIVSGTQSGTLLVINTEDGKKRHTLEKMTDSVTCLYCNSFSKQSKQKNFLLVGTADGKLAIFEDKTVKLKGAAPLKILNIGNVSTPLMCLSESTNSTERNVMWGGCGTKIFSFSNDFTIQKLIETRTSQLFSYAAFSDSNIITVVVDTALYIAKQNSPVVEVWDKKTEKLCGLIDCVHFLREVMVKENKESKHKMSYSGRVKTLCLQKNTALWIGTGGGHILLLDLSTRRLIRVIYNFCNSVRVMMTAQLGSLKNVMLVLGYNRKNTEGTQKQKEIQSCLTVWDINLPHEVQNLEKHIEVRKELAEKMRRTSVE
For the wild type LRRK the 2×LRRK2/ERM (LRRKtide) mixture was prepared in 50 mM Tris pH 8.5, 0.01% BRIJ-35, 10 mM MgCl2, 1 mM EGTA, 0.02% NaN3. […] After 1 hour Kinase Reaction incubation, 5 μL of Detection Mix was added.

The next assay concerns the target LRRK2 G2019S (Homo sapiens (Human), UniProt Q5S007, G2019S). In words: LRRK2 G2019S Kinase Assay. The settings on record: 10 μM ATP. Here is the method: Procedure: Enzyme was incubated with substrate peptide in reaction buffer in the presence and absence of test compounds or Staurosporine. All additions were done on ice, followed by the addition of ATP mix. Wells were uniformly mixed using an Eppendorff plate shaker and incubated at 30° C. for 20 min, and stopped by the addition of 5 μl of 3% phosphoric acid. Volume was increased to 100 μl by adding 0.8% phosphoric acid which was then transferred to PC filter mats (Millipore), pre-equilibrated with 70% ethanol and water. Plates were washed thrice with 100 μl 0.8% phosphoric acid and dried for an hour at 60° C. 100 μl scintillation fluid was added into each well and reading taken in Perkin Elmer TOPCOUNT beta counter. […] A validation EC50 curve was generated by plotting CPM for each Staurosporine concentration on y-axis against the Log concentration of Staurosporine (nM) on the x-axis followed by a best fit curve through the points.
After 1 hour Kinase Reaction incubation, 5 μL of Detection Mix was added.

A further assay addresses DYRK1A (Homo sapiens (Human), UniProt Q13627). The assay is described as follows: In vitro DYRK1A inhibition assay. Here is the method: as §1
The 2×DYRK1A/Ser/Thr 18 mixture was prepared in 50 mM HEPES pH 7.5, 0.01% BRIJ-35, 10 mM MgCl2, 1 mM EGTA.

Molecules are shown by their SMILES.

Sequence of LRRK2 G2019S (Q5S007 970-2527 G2019S): as the sequence (Q5S007 970-2527) above, with G1050S counted along it

In the case of `Cc1n[nH]c2ncc(NC3CCCN(Cc4ccc(F)cc4)C3)cc12` (centres unmarked) [Compound 22, N-(1-(4-fluorobenzyl)piperidine-3-yl)-3-methyl-1H-pyrazolo[3,4-b]pyridine-5-amine], the IC50 against LRRK2, against LRRK2 G2019S and on DYRK1A was > 500 nM each time.
Consider `Cc1n[nH]c2ncc(NC3CCCN(Cc4ccc(Cl)cc4)C3)cc12` (centres unmarked) [Compound 27, N-(1-(4-Chlorobenzyl)piperidin-3-yl)-3-methyl-1H-pyrazolo[3,4-b]pyridid-5-amine], for which the IC50 at LRRK2, against LRRK2 G2019S and at DYRK1A was > 500 nM each time.
For the molecule `Cc1n[nH]c2ncc(NC3CCCN(Cc4ccc(Cl)c(Cl)c4)C3)cc12` (centres unmarked) [Compound 28, N-(1-(3,4-Chlorobenzyl)piperidin-3-yl)-3-methyl-1H-pyrazolo[3,4-b]pyridid-5-amine], the IC50 against LRRK2, at LRRK2 G2019S and against DYRK1A was > 500 nM each time.
As to `Cc1n[nH]c2ncc(-c3cncc(OCCN4CCN(C)CC4)n3)cc12` [Compound 33, 5-(6-(2-(4-methylpiperazin-1-yl)ethoxy)pyrazin-2-yl)-3-methyl-1H-pyrazolo[3,4-b]pyridine], the IC50 against LRRK2, against LRRK2 G2019S and at DYRK1A was > 500 nM each time.
Regarding `Cc1n[nH]c2ncc(-c3cncc(NC(=O)C4CCN(C)CC4)n3)cc12` [Compound 39], the IC50 against LRRK2, at LRRK2 G2019S and against DYRK1A was > 500 nM throughout.
Consider `Cc1n[nH]c2ncc(-c3cncc(N4CCCC4=O)n3)cc12` [Compound 48, 1-(6-(3-methyl-1H-pyrazolo[3,4-b]pyridin-5-yl)pyrazin-2-yl)pyrrolidin-2-one], for which the IC50 against LRRK2 was > 500 nM; against LRRK2 G2019S, > 500 nM; on DYRK1A it was > 1000 nM.
On to `Cc1n[nH]c2ncc(-c3cncc(NC4CCN(C)C4)n3)cc12` (centres unmarked) [Compound 51, 6-(3-methyl-1H-pyrazolo[3,4-b]pyridin-5-yl)-N-(1-methylpyrrolidin-3-yl)pyrazin-2-amine], for which the IC50 against LRRK2 was > 500 nM; at LRRK2 G2019S it was > 500 nM; on DYRK1A it was > 1000 nM.
For `Cc1n[nH]c2ncc(-c3cncc(N4CCC(F)(F)C4)n3)cc12` [Compound 56, 5-(6-(3,3-difluoropyrrolidin-1-yl)pyrazin-2-yl)-3-methyl-1H-pyrazolo[3,4-b]pyridine], the figures for the IC50 against LRRK2, on LRRK2 G2019S and at DYRK1A were > 500 nM, > 500 nM and > 1000 nM, respectively.
Consider `Cc1n[nH]c2ncc(-c3cncc(N4CCN(CCO)CC4)n3)cc12` [Compound 59, 2-(4-(6-(3-methyl-1H-pyrazolo[3,4-b]pyridin-5-yl)pyrazin-2-yl)piperazin-1-yl)ethanol], for which the IC50 on LRRK2 is < 500 nM; against LRRK2 G2019S, < 500 nM; on DYRK1A, > 500 nM.
For the molecule `Cc1n[nH]c2ncc(-c3cncc(N4CCN(C)CC4)n3)cc12` [Compound 65, 3-methyl-5-(6-(4-methylpiperazin-1-yl)pyrazin-2-yl)-1H-pyrazolo[3,4-b]pyridine], the figures for the half-inhibitory concentration (IC50) against LRRK2, at LRRK2 G2019S and at DYRK1A were < 500 nM, < 500 nM and > 1000 nM, respectively.
With `Cc1n[nH]c2ncc(-c3cncc(NCCN(C)C)n3)cc12` [Compound 68, N^1,N^1-dimethyl-N2-(6-(3-methyl-1H-pyrazolo[3,4-b]pyridin-5-yl)pyrazin-2-yl)ethane-1,2-diamine], the IC50 against LRRK2 was < 500 nM; at LRRK2 G2019S it was < 500 nM; on DYRK1A, > 1000 nM.
Take `Cc1n[nH]c2ncc(-c3cncc(C(=O)N4CCCCC4)n3)cc12` [Compound 77, (6-(3-methyl-1H-pyrazolo[3,4-b]pyridin-5-yl)pyrazin-2-yl)(piperidin-1-yl)metha-none]: the results for the IC50 against LRRK2, against LRRK2 G2019S and against DYRK1A were > 500 nM, > 500 nM and > 1000 nM, respectively.
For the molecule `Cc1n[nH]c2ncc(-c3cncc(NC4CCN(CCO)CC4)n3)cc12` [Compound 81, 2-(4-((6-(3-methyl-1H-pyrazolo[3,4-b]pyridin-5-yl)pyrazin-2-yl)amino)piperidin-1-yl)ethanol], the 50% inhibitory concentration (IC50) at LRRK2, on LRRK2 G2019S and against DYRK1A was < 500 nM throughout.
Turning to `Cc1n[nH]c2ncc(-c3cncc(N4CCNC(=O)C4)n3)cc12` [Compound 83, 4-(6-(3-methyl-1H-pyrazolo[3,4-b]pyridin-5-yl)pyrazin-2-yl)piperazin-2-one], the IC50 against LRRK2, on LRRK2 G2019S and on DYRK1A was > 500 nM each time.
`Cc1n[nH]c2ncc(-c3cncc(NC4CCN(C(C)C)CC4)n3)cc12` [Compound 87, N-(1-isopropylpiperidin-4-yl)-6-(3-methyl-1H-pyrazolo[3,4-b]pyridin-5-yl)pyrazin-2-amine]: the IC50 on LRRK2, at LRRK2 G2019S and against DYRK1A was > 500 nM throughout.
In the case of `Cc1n[nH]c2ncc(-c3cncc(N4CCc5ccccc54)n3)cc12` [Compound 90, 5-(6-(indolin-1-yl)pyrazin-2-yl)-3-methyl-1H-pyrazolo[3,4-b]pyridine], the IC50 on LRRK2, against LRRK2 G2019S and against DYRK1A was < 500 nM each time.
With `Cc1n[nH]c2ncc(-c3cncc(Nc4cccc(N5CCCC5=O)c4)n3)cc12` [Compound 94, 1-(3-((6-(3-methyl-1H-pyrazolo[3,4-b]pyridin-5-yl)pyrazin-2-yl)amino)phenyl)pyrrolidin-2-one], the figures for the IC50 on LRRK2, against LRRK2 G2019S and against DYRK1A were < 500 nM, < 500 nM and > 500 nM, respectively.
For the molecule `Cc1n[nH]c2ncc(-c3cccc(NC4CCN(C)CC4)c3)cc12` [Compound 98, 1-methyl-N-(3-(3-methyl-1H-pyrazolo[3,4-b]pyridin-5-yl)phenyl)piperidin-4-amine], the IC50 at LRRK2, against LRRK2 G2019S and on DYRK1A was > 1000 nM throughout.
On to `Cc1n[nH]c2ncc(-c3cccc(NC4CCN(C)CC4)n3)cc12` [Compound 102, 6-(3-methyl-1H-pyrazolo[3,4-b]pyridin-5-yl)-N-(1-methylpiperidin-4-yl)pyridin-2-amine], for which the IC50 at LRRK2, against LRRK2 G2019S and at DYRK1A was > 500 nM each time.
Regarding `Cc1n[nH]c2ncc(-c3cnn(C)c3)cc12` [Compound 108, 3-methyl-5-(1-methyl-1H-pyrazol-4-yl)-1H-pyrazolo[3,4-b]pyridine], the IC50 against LRRK2, against LRRK2 G2019S and against DYRK1A was > 500 nM in each case.
Consider `CN1CCN(c2cncc(-c3cnc4[nH]ccc4c3)n2)CC1` [Compound 125, 5-(6-(4-methylpiperazin-1-yl)pyrazin-2-yl)-1H-pyrrolo[2,3-b]pyridine], for which the IC50 on LRRK2, on LRRK2 G2019S and on DYRK1A was < 500 nM each time.
With `C=CC(=O)Nc1cccc(-c2cnc3[nH]nc(C)c3c2)c1` [Compound 155, N-(3-(3-methyl-1H-pyrazolo[3,4-b]pyridin-5-yl)phenyl)acrylamide], the IC50 on LRRK2 and at LRRK2 G2019S was > 1000 nM in each case.
Regarding `Cc1n[nH]c2ncc(-c3cccc(CC#N)c3)cc12` [Compound 158, 2-(3-(3-methyl-1H-pyrazolo[3,4-b]pyridin-5-yl)phenyl)acetonitrile], the IC50 on LRRK2 and against LRRK2 G2019S was > 1000 nM throughout.
For the molecule `Cc1n[nH]c2ncc(-c3ccc(N4CCN(C)CC4)cc3)cc12` [Compound 161, 3-methyl-5-(4-(4-methylpiperazin-1-yl)phenyl)-1H-pyrazolo[3,4-b]pyridine], the half-maximal inhibitory concentration (IC50) at LRRK2 and against LRRK2 G2019S was > 1000 nM in each case.
As to `Cc1n[nH]c2ncc(Nc3cccc(CN4CCN(CCO)CC4)c3)cc12` [Compound 164, 2-(4-(3-((3-methyl-1H-pyrazolo[3,4-b]pyridin-5-yl)amino)benzyl)piperazin-1-yl)ethanol], the IC50 against LRRK2 and against LRRK2 G2019S was > 1000 nM in each case.
Consider `Cc1n[nH]c2ncc(Nc3ccc(CN4CCN(C)CC4)cc3)cc12` [Compound 167, 3-methyl-N-(4-((4-methylpiperazin-1-yl)methyl)phenyl)-1H-pyrazolo[3,4-b]pyridin-5-amine], for which the IC50 at LRRK2 and on LRRK2 G2019S was > 1000 nM throughout.
As to `Cc1n[nH]c2ncc(Nc3ccc(N4CCN(C)CC4)c(F)c3)cc12` [Compound 170, N-(3-fluoro-4-(4-methylpiperazin-1-yl)phenyl)-3-methyl-1H-pyrazolo[3,4-b]pyridin-5-amine], the IC50 against LRRK2 and against LRRK2 G2019S was > 1000 nM throughout.
As to `Cc1n[nH]c2ncc(Nc3cncc(Cl)n3)cc12` [Compound 171, N-(6-chloropyrazin-2-yl)-3-methyl-1H-pyrazolo[3,4-b]pyridin-5-amine], the IC50 against LRRK2 and against LRRK2 G2019S was > 1000 nM throughout.

The values are drawn from patent US9669028B2, “Substituted 5-(pyrazin-2-yl)-1H-pyrazolo [3, 4-B] pyridine and pyrazolo [3, 4-B] pyridine derivatives as protein kinase inhibitors” (Arrien Pharmaceuticals LLC, priority 2011, dated 2017).
